Assay results as given in ChEMBL document CHEMBL5550127, “1,2,3-Triazole-totarol conjugates as potent PIP5K1α lipid kinase inhibitors” (Bioorg Med Chem, 2024).
Each block holds one compound with its values, some of them ahead of it. Active and inactive are the calls of the source. The calls are words filed in the database; no cut-off is given here.

Key:
Casein kinase 2 = Casein kinase 2 (Homo sapiens, UniProt P67870+P68400+P19784+Q8NEV1); test: Inhibition of CK2 (unknown origin) using RRRDDDSDDD-EDANS as substrate measured after 15 mins by capillary electrophoresis; assay type: protein assay
[1] = target: Phosphatidylinositol 4-phosphate 5-kinase type-1 alpha (Homo sapiens) (UniProt Q99755); test: (§1) Inhibition of recombinant human PIP5K1alpha expressed in Escherichia coli BL21 (DE3) using phosphatidylinositol-4-phosphate as substrate at 1 to 10 uM preincubated for 10 mins followed by substrate and ATP addition and further incubated under dark condition with constant shaking for 30 mins by capillary electrophoresis; conditions: dose 1-10 µM, time 40.0 min
Sequence of Phosphatidylinositol 4-phosphate 5-kinase type-1 alpha (Homo sapiens) (Q99755 whole entry): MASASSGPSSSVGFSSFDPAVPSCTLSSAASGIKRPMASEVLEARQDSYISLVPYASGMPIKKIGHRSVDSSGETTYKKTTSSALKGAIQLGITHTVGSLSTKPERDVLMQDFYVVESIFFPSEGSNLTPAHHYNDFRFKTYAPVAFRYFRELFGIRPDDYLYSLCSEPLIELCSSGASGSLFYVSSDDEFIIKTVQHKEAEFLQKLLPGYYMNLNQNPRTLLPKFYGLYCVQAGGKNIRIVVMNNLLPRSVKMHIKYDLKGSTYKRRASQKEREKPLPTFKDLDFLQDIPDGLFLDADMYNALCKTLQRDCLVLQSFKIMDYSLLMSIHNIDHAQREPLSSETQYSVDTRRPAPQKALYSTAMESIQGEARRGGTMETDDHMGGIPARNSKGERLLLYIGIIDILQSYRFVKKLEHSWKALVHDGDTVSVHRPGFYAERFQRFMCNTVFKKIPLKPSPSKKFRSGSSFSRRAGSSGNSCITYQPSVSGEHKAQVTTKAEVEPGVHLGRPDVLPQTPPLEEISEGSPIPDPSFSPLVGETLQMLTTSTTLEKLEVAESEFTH

[2] = target: Phosphatidylinositol 4-phosphate 5-kinase type-1 alpha (Homo sapiens) (UniProt Q99755); test: as §1, with “at” for “at 1 to”; conditions: time 40.0 min
LNCaP [3] = test: Antiproliferative activity against human LNCaP cells assessed as inhibition of cell growth by measuring reduction in cell confluence at 20 uM measured every 2 hrs for 48 hrs by IncuCyte live-cell imaging analysis; assay type: functional, cell-based
LNCaP [4] = test: Antiproliferative activity against human LNCaP cells assessed as inhibition of cell growth by measuring negative AUC values at 20 uM measured after 48 hrs by IncuCyte live-cell imaging analysis; assay type: functional, cell-based
PC-3 [5] = test: Antiproliferative activity against human PC-3 cells assessed as inhibition of cell growth by measuring negative AUC values at 20 uM measured after 48 hrs by IncuCyte live-cell imaging analysis; assay type: functional, cell-based
DU-145 [6] = test: Antiproliferative activity against human DU-145 cells assessed as inhibition of cell growth by measuring negative AUC values at 20 uM measured after 48 hrs by IncuCyte live-cell imaging analysis; assay type: functional, cell-based
LNCaP [7] = test: Antiproliferative activity against human LNCaP cells assessed as inhibition of cell growth by measuring reduction in cell confluence at 10 to 20 uM measured every 2 hrs for 72 hrs by IncuCyte live-cell imaging analysis; assay type: functional, cell-based; conditions: dose 10-20 µM
PC-3 [8] = test: Antiproliferative activity against human PC-3 cells assessed as inhibition of cell growth by measuring reduction in cell confluence at 10 to 20 uM measured every 2 hrs for 72 hrs by IncuCyte live-cell imaging analysis; assay type: functional, cell-based; conditions: dose 10-20 µM
DU-145 [9] = test: Antiproliferative activity against human DU-145 cells assessed as inhibition of cell growth by measuring reduction in cell confluence at 10 to 20 uM measured every 2 hrs for 72 hrs by IncuCyte live-cell imaging analysis; assay type: functional, cell-based; conditions: dose 10-20 µM
LNCaP [10] = test: Antiproliferative activity against human LNCaP cells assessed as inhibition of cell growth by measuring reduction in cell confluence at 1 to 5 uM measured every 2 hrs for 72 hrs by IncuCyte live-cell imaging analysis; assay type: functional, cell-based; conditions: dose 1-5 µM
DU-145 [11] = test: Antiproliferative activity against human DU-145 cells assessed as inhibition of cell growth by measuring reduction in cell confluence at 1 to 5 uM measured every 2 hrs for 72 hrs by IncuCyte live-cell imaging analysis; assay type: functional, cell-based; conditions: dose 1-5 µM
PC-3 [12] = test: Induction of morphological changes in human PC-3 cells assessed as change in number of cells at 10 uM measured after 0 to 72 hrs by IncuCyte live-cell imaging based phase contrast microscopic analysis; assay type: functional; conditions: time 0-72 hrs
PC-3 [13] = test: Induction of morphological changes in human PC-3 cells assessed as change in cell shape at 10 uM measured after 0 to 72 hrs by IncuCyte live-cell imaging based phase contrast microscopic analysis; assay type: functional; conditions: time 0-72 hrs
DU-145 [14] = test: Induction of morphological changes in human DU-145 cells assessed as change in number of cells at 10 uM measured after 0 to 72 hrs by IncuCyte live-cell imaging based phase contrast microscopic analysis; assay type: functional; conditions: time 0-72 hrs
DU-145 [15] = test: Induction of morphological changes in human DU-145 cells assessed as change in cell shape at 10 uM measured after 0 to 72 hrs by IncuCyte live-cell imaging based phase contrast microscopic analysis; assay type: functional; conditions: time 0-72 hrs
LNCaP [16] = test: Induction of morphological changes in human LNCaP cells assessed as change in number of cells at 10 uM measured after 0 to 72 hrs by IncuCyte live-cell imaging based phase contrast microscopic analysis; assay type: functional; conditions: time 0-72 hrs
LNCaP [17] = test: Induction of morphological changes in human LNCaP cells assessed as change in cell shape at 10 uM measured after 0 to 72 hrs by IncuCyte live-cell imaging based phase contrast microscopic analysis; assay type: functional; conditions: time 0-72 hrs
LNCaP [18] = test: cells; conditions: Homo sapiens, 72 h
Description: Antiproliferative activity against human LNCaP cells assessed as inhibition of cell growth measured after 72 hrs by IncuCyte live-cell imaging analysis

PC-3 [19] = test: cells; conditions: Homo sapiens, PC-3, 72 h
Description: Antiproliferative activity against human PC-3 cells assessed as inhibition of cell growth measured after 72 hrs by IncuCyte live-cell imaging analysis

DU-145 [20] = test: cells; conditions: Homo sapiens, DU-145, 72 h
Description: Antiproliferative activity against human DU-145 cells assessed as inhibition of cell growth measured after 72 hrs by IncuCyte live-cell imaging analysis

LNCaP [21] = test: Antiproliferative activity against human LNCaP cells assessed as inhibition of cell growth by measuring reduction in cell confluence at 5 to 20 uM measured every 2 hrs for 48 hrs by IncuCyte live-cell imaging analysis; assay type: functional, cell-based; conditions: dose 5-20 µM

IC50 (Casein kinase 2): 4.1 µM
SMILES: COc1ccc(-n2cc(COc3ccc4c(c3C(C)C)CC[C@H]3C(C)(C)CCC[C@]43C)nn2)cc1

inhibition [1]: inactive
SMILES: CCCCCCCCCCCn1cc(COc2ccc3c(c2C(C)C)CC[C@H]2C(C)(C)CCC[C@]32C)nn1

inhibition [2]: inactive
SMILES: CC(C)c1c(O)ccc2c1CC[C@H]1C(C)(C)CCC[C@]21C
Activity (LNCaP [3]): inactive

IC50 (Casein kinase 2): 0.91 µM
SMILES: CC(C)c1c(OCc2cn(-c3cccc([N+](=O)[O-])c3)nn2)ccc2c1CC[C@H]1C(C)(C)CCC[C@]21C

EC50 (LNCaP [18]): 15.7 µM
EC50 (PC-3 [19]): 4.89 µM
EC50 (DU-145 [20]): 8.57 µM
SMILES: CC(C)c1c(OCc2cn(C3=CCC4C(=O)N(CCN(C)C)C(=O)c5cccc3c54)nn2)ccc2c1CC[C@H]1C(C)(C)CCC[C@]21C (stereo partly drawn)
Activity (LNCaP [4]): Active
Activity (PC-3 [5]): Active
Activity (DU-145 [6]): Active
Activity (LNCaP [7]): Active
Activity (PC-3 [8]): Active
Activity (DU-145 [9]): Active
Activity (LNCaP [10]): inactive
Activity (DU-145 [11]): inactive
Activity (PC-3 [12]): Active
Activity (PC-3 [13]): Active
Activity (DU-145 [14]): Active
Activity (DU-145 [15]): Active
Activity (LNCaP [16]): Active
Activity (LNCaP [17]): Active

SMILES: CN(C)CCN1C(=O)c2cccc3c(-n4cc(CO)nn4)ccc(c23)C1=O
Activity (LNCaP [21]): Active
